Reference: US20210134398A1, “Combinatorial Chemistry Computational System and Enhanced Selection Method” (Southern Methodist University, priority 2019, published 2021)
Entries after “also recorded” stand apart in the source; their conditions may differ.

How the values were obtained:
[1] = biological target: T1, P-gp-catalyzed transport of calcein AM in DU145TXR cells (Homo sapiens, UniProt P08183); test: Calcein AM accumulation assay; assay type: cell-based; conditions: after 6-hour pre-incubation, compared to parental 29
T1 construct: DU145 human prostate cancer cells^52 as well as the multidrug resistant sub-line, DU145TXR; endogenous in cells; host or cells: DU145TXR (paclitaxel-selected sub-line of human DU145 prostate cancer cells)
T1 sequence (P08183 whole entry): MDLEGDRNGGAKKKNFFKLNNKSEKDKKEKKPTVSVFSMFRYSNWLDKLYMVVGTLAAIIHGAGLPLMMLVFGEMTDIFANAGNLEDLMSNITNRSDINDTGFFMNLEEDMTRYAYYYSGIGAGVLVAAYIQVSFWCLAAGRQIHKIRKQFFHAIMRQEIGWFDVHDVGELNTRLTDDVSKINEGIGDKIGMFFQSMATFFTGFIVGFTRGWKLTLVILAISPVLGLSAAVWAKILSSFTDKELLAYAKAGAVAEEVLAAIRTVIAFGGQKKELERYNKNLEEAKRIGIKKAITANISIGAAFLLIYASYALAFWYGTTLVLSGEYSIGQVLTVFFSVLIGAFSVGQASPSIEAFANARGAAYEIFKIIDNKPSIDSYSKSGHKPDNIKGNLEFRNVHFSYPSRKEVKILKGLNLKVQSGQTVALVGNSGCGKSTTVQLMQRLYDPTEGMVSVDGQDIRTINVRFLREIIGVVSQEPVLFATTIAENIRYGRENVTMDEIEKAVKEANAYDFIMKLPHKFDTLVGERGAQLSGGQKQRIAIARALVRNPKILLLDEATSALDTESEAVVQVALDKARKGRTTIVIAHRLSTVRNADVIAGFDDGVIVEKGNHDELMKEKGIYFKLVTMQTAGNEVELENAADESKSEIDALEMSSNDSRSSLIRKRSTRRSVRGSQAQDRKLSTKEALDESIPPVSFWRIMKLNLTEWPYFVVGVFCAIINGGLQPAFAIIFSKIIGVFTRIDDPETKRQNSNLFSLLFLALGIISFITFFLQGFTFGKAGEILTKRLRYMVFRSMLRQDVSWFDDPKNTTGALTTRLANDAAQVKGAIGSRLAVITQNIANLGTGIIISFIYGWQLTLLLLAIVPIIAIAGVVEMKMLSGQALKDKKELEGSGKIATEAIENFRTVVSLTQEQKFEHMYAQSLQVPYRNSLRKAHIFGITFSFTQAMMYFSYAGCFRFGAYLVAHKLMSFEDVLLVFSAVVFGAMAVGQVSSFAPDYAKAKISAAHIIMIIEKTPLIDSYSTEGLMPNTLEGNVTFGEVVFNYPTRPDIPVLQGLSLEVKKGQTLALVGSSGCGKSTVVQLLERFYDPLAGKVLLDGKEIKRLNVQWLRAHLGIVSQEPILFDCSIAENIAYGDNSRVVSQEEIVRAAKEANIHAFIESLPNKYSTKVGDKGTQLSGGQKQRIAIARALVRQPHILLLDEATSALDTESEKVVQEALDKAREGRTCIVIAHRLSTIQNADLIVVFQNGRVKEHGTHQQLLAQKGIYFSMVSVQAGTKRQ
Experimental: Accumulation and cellular retention of calcein AM in P-gp overexpressing prostate cancer cells upon incubation with Group 1 SMU-29 variants. Calcein AM accumulation assays have been used by us previously to evaluate P-gp-substrate accumulation in real time in the presence or absence of P-gp inhibitors^28. For these assays, P-gp overexpressing DU145TXR cells were incubated with the respective inhibitors in the presence of the P-gp substrate, calcein AM. Inhibition of P-gp leads to cellular accumulation of calcein AM and to cleavage of its acetoxymethyl ester groups, resulting in the generation of the highly fluorescent compound, calcein. The anionic calcein is not a substrate of P-gp and remains in the cells. In these assays, the relative fluorescence of cellular calcein was measured over time and the results of these assays are shown in FIG. 13A. […]
Calcein AM assay. To assess inhibition of P-gp-catalyzed transport of the P-gp pump substrate, calcein AM, DU145TXR cells were seeded in 96 wells plates and allowed to grow in complete medium until confluency was reached. Medium was removed, and cells were treated […] P-gp inhibitory compounds and 1 μg/mL calcein AM (Life Technologies, OR) and diluted into phenol red free RPMI 1640 media. To study the effect of pre-incubation of compounds, cells were treated with just P-gp inhibitory compounds and incubated at 37° C. for six hours before adding calcein AM. Fluorescence excitation at 485 nm with a 20 nm gate and at emission at 535 nm with a 20 nm gate was measured using a BioTek Cytation 5 imaging multi-mode reader (Bio-Tek, Winooski, Vt.) over 60 minutes in 20 minute intervals. DMSO was used as vehicle. Results were plotted as the mean with standard deviation (SD) of six replicates per concentration and are representative of at least two independent experiments.

[2] = biological target: T2, Cysteineless Mouse MDR3 P-glycoprotein (Mus musculus, UniProt P21447, C1070A/C1121A/C1223A/C133A/C427A/C638A/C669A/C713A/C952A); test: ATPase activity assay (basal and verapamil-stimulated), purified P-gp in mixed micelles; assay type: biochemical; conditions: for Effect on stimulated ATPase / Stimulated ATPase: in the presence of verapamil; for Stimulated ATPase / Basal ATPase: ± standard deviation; for Effect on basal ATPase / Stimulation of basal ATPase / Basal ATPase: no added transport substrate
T2 construct: made in house; host or cells: Pichia pastoris
T2 sequence (P21447 whole entry C133A/C427A/C638A/C669A/C713A/C952A/C1070A/C1121A/C1223A): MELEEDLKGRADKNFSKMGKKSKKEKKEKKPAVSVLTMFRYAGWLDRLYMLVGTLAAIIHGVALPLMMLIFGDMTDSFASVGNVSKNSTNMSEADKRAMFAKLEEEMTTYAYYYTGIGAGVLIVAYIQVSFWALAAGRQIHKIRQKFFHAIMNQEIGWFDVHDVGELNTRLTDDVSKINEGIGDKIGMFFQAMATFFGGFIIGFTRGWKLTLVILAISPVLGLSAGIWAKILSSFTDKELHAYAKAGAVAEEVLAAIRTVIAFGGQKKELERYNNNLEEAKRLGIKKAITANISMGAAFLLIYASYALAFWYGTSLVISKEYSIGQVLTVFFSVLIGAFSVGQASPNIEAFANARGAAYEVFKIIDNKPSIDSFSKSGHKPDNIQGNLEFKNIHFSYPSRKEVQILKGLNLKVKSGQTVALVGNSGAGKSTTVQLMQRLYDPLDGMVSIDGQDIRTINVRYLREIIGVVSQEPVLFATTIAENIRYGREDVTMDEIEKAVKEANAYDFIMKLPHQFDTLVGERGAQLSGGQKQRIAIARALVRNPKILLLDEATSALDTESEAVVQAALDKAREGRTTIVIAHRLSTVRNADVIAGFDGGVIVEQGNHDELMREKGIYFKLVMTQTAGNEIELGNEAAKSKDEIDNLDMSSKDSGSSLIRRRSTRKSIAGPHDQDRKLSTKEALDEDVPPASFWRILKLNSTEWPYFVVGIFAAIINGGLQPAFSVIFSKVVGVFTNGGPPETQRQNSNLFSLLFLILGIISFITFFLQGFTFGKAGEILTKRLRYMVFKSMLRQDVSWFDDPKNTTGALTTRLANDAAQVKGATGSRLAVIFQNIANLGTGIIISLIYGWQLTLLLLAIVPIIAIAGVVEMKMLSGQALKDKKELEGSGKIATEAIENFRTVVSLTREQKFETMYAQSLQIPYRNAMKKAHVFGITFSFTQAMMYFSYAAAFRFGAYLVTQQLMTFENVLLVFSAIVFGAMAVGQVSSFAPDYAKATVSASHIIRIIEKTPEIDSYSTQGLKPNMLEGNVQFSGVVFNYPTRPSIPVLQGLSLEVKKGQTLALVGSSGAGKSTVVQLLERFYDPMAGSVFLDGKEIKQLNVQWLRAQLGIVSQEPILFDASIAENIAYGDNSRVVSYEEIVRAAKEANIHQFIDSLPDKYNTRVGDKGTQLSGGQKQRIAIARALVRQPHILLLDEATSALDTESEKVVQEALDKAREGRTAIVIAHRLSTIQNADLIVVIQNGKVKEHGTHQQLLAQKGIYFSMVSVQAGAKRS
Experimental: Evaluation of mode of inhibition of P-glycoprotein by Group 1 and Group 2 variants of compound 29. To assess the mode of inhibition of P-gp by the novel variants of P-gp inhibitor 29, ATP hydrolysis by P-gp was evaluated in the presence or absence of the variants. […] Murine P-gp (MDR3) expressed in Pichia pastoris that had all naturally occurring cysteines replaced with alanine, was used^45, 46. It is widely assumed that the ATP hydrolytic rate of P-gp is stimulated in the presence of transport substrates when compared to ATP hydrolysis in the absence of transport substrates. Assays comparing these rates can therefore be useful not only in identifying inhibitors of P-gp catalyzed ATP hydrolysis, but also to potentially infer whether a compound might be a transport substrate if basal ATPase rates are stimulated by the addition of a compound.
P-glycoprotein Purification. Cysteine-less MDR3 and the human normal MDR1 P-glycoprotein was recombinantly expressed in the yeast Pichia pastoris essentially as in^45, 46 and used for assaying ATP hydrolysis and ATP binding to the protein in the presence of the 29-variants. Purification of the protein was performed as described^49 with small modifications resulting in highly enriched P-gp in mixed micelles containing dodecyl maltoside (DDM) and lysophosphatidyl choline^26.
ATPase Activity Assays. ATP hydrolysis activity was measured using a coupled enzyme assay^72 as modified in reference^26.

[3] = biological target: T3, cysteineless mouse P-glycoprotein (Mus musculus, UniProt P21447, C1070A/C1121A/C1223A/C133A/C427A/C638A/C669A/C713A/C952A); test: SL-ATP (spin-labeled ATP analog) binding titration by ESR; conditions: for Maximum ATP binding: in the presence of the compound, ± standard deviation
T3 construct: made in house; host or cells: Pichia pastoris
T3 sequence (P21447 whole entry C133A/C427A/C638A/C669A/C713A/C952A/C1070A/C1121A/C1223A): as above
Experimental: Effects of 29 variants on binding of an ATP-analog to purified P-glycoprotein. ATP binding in the presence of the 29 variants was assessed in titration assays using a spin-labeled analog of ATP, 2′,3′-SL-ATP (2′,3′-(2,2,5,5,-tetramethyl-3-pyrroline-1-oxyl-3-carboxylic acid ester) ATP; (2′,3′ indicates a rapid equilibrium of the ester bond between the C2′ and C3′ of the ribose moiety))^48-50, and electron spin resonance spectroscopy as described in^26. Due to the lower stability of the human P-glycoprotein in the extended times needed for these experiments, the cysteineless mouse protein was used here. The goal was to assess whether binding of the 29 variants to P-gp affected nucleotide binding to the protein.
ESR Measurements. ESR measurements were as described in^26. The amount of protein-bound spin-labeled (SL) adenine nucleotide was determined as the difference between the known total concentration of SL-ATP (2′,3′-(2,2,5,5,-tetramethyl-3-pyrroline-1-oxyl-3-carboxylic acid ester) —ATP^48) added and the free spin-labeled nucleotide (SL-ANP) observed in the experiment. Hyperbolic curve fitting of the results was performed using GraphPad Prism 7 to determine maximum binding and apparent affinity for the spin-labeled nucleotide. The equation used for the fitting the curves was […], where P1 corresponds to the maximum binding of SL-ANP (moles of SL-ANP bound per mole P-gp), and P2 equals the apparent dissociation constant for SL-ANP. To quantify the amount of free SL-ANP, standard curves were established where the signal amplitude of the high field signal of the ESR spectra of free SL-ANP in the absence of protein was correlated to the concentration of SL-ANP added. All ESR measurements were performed using a Bruker EMX 6/1 ESR spectrophotometer operating in X-band mode and equipped with a high sensitivity cavity. Spectra were acquired at a microwave frequency of 9.33 GHz, microwave power of 12.63 mW, 100 kHz modulation frequency and a resolution of 1024 points. The centerfield of the scan was at 3325 G and an area of 100 G was scanned. The peak to peak modulation amplitude was 1G and the time constant was set to 10.240 ms. The conversion time was 163.84 ms, resulting in a total time sweep of 167.772 s. The signal gain was adjusted for the SL-ATP concentrations in the different experiments.

[4] = biological target: T1, P-gp-catalyzed transport of calcein AM in DU145TXR cells; test: Calcein AM accumulation assay; assay type: cell-based; conditions: without pre-incubation, compared to parental 29, 5 μM stated for Group 2

Calcein accumulation in DU145TXR (in words) [1] | Effect on basal ATPase [2] | Stimulation of basal ATPase [2] | SMILES | Stimulated ATPase [2] | Basal ATPase [2] | Effect on SL-ANP binding [3] | Maximum ATP binding [3] | Calcein accumulation in DU145TXR (in words) [4] | also measured
remained strongest | stimulator | ~3 fold | Cc1cc(C)c(-c2cc(NC(=O)CSCC(=O)Nc3ccc4ncsc4c3)n(-c3ccccc3)n2)cc1C [29-255, 2-({[(1,3-benzothiazol-6-yl)carbamoyl]methyl}sulfanyl)-N-[1-phenyl-3-(2,4,5 trimethylphenyl)-1H-pyrazol-5-yl]acetamide] | 123 ± 15 % of DMSO | 355 ± 7 % of DMSO | no | 1.9 ± 0.1 mol SL-ANP bound/mol P-gp | considerably increased calcein accumulation | Effect on stimulated ATPase ([2]; listed as SMU29-255): none
– | – | – | Cc1cc(C)c(-c2cc(NC(=O)CSc3nnc4c(n3)[nH]c3ccccc34)n(-c3ccccc3)n2)cc1C [29-541, 2-((5H-[1,2,4]triazino[5,6-b]indol-3-yl)thio)-N-(1-phenyl-3-(2,4,5-trimethylphenyl)-1H-pyrazol-5-yl)acetamide] | 68 ± 7 % of DMSO | 101 ± 12 % of DMSO | no | 1.8 ± 0.1 mol SL-ANP bound/mol P-gp | – | Calcein accumulation in DU145TXR (in words) ([1]; listed as 541): exceeded 29 significantly; also recorded: exceeded 29 upon preincubation; Effect on stimulated ATPase ([2]; listed as 541): inhibited activity similar to parental compound 29; also recorded: inhibited verapamil-stimulated ATPase activity; Effect on stimulated ATPase ([2]; listed as SMU29-541): inhibitor; Effect on basal ATPase ([2]; listed as 541): did not significantly affect; also recorded: did not activate; Effect on basal ATPase ([2]; listed as SMU29-541): none; Calcein accumulation in DU145TXR (in words) ([4]; listed as 541): performed relatively equally to 29; also recorded: performed similar to the parental compound
remained strongest | stimulator | ~10 fold | COc1cc(NC(=O)CSCC(=O)Nc2cc(-c3cc(C)c(C)cc3C)nn2-c2ccccc2)cc(OC)c1OC [29-238, N-[1-phenyl-3-(2,4,5-trimethylphenyl)-1H-pyrazol-5-yl]-2-({[(3,4,5-trimethoxyphenyl)carbamoyl]methyl}sulfanyl)acetamide] | 194 ± 22 % of DMSO | 1143 ± 46 % of DMSO | yes | – | considerably increased calcein accumulation | Effect on stimulated ATPase ([2]; listed as 238): about two-fold; Effect on stimulated ATPase ([2]; listed as SMU29-238): stimulator; Maximum ATP binding ([3]; listed as 238): about 1 mol SL-ANP bound/mol P-gp; Maximum ATP binding ([3]; listed as SMU29-238): 1.2 ± 0.1 mol SL-ANP bound/mol P-gp

SMILES | Calcein accumulation in DU145TXR (in words) [1] | Effect on basal ATPase [2] | Stimulation of basal ATPase [2] | Stimulated ATPase [2] | Basal ATPase [2] | Effect on SL-ANP binding [3] | Maximum ATP binding [3] | Calcein accumulation in DU145TXR (in words) [4] | also measured
Cc1cc(C)c(-c2cc(NC(=O)CSCC(=O)NC(c3ccccc3)c3ccccc3)n(-c3ccccc3)n2)cc1C [29-280, N-(diphenylmethyl)-2-[({[1-phenyl-3-(2,4,5-trimethylphenyl)-1H-pyrazol-5-yl]carbamoyl)methyl}sulfanyl]acetamide] | comparable to 29 | – | – | 116 ± 4 % of DMSO | 148 ± 4 % of DMSO | marginally | 1.6 ± 0.1 mol SL-ANP bound/mol P-gp | less calcein accumulation than the parental compound | Effect on stimulated ATPase ([2]; listed as 280): only a slight stimulation; Effect on stimulated ATPase ([2]; listed as SMU29-280): stimulator; Effect on basal ATPase ([2]; listed as SMU29-280): stimulator
